tested on: VZV (strain CaQu); assay: Anti-VZV activity assay (plaque reduction in HEF cells); format: cell-based, varicella zoster virus; settings: Human alphaherpesvirus 3, 3 to 4 days culture, plaque count, read-out: EC50 (concentration to inhibit 50% of the plaques)
Method: This assay was carried out in accordance with the method described by Shigeta S. (The Journal of Infectious Diseases, 147, 3, 576-584 (1983). Illustratively, HEF cells were seeded a 96 well microtiter plate at 10,000 cells per well using a propagation medium and cultured at 37° C. for 4 days in an atmosphere of 5% CO2 until monolayers were formed. After washing the cells with a maintaining medium, the cells were inoculated with 100 μl/well of VZV (strain CaQu) which had been diluted to 20 to 30 pfu/100 μl with the maintaining medium. The plate was centrifuged at 2,000 rpm for 20 minutes at room temperature and then incubated at 37° C. for 3 hours in an atmosphere of 5% CO2 to infect with VZV. After washing three times with 100 μl/well of the maintaining medium, 100 μl of each test drug diluted to an appropriate concentration with the maintaining medium was added to each well. After culturing the cells at 37° C. for 3 to 4 days in an atmosphere of 5% CO2, the cells were fixed with 100 μl/well of 10% formalin/PBS for 2 to 3 hours. After discarding the fixing solution and culture supernatant and subsequently washing the plate with water, a staining solution (0.025% Crystal Violet) was added in 50 μl/well to carry out 2 to 3 minutes for staining, and then the plate was washed with water and dried at 37° C. The HEF cells infected with VZV cause cell death, and plaques comprising dead cells are formed in the monolayer HEF cells. The number of plaques was counted under a microscope, and EC50 value of the test drug was calculated as a concentration to inhibit 50% of the plaques.

EC50 [nM]	SMILES
65	Nc1nc(-c2ccc(NC(=O)CN(C(=O)c3ccc(F)nc3)c3ccc4scnc4c3)cc2)cs1 [Example 117]
40	Nc1nc(-c2ccc(NC(=O)CN(C(=O)C3CCSc4ccccc43)c3ccc4scnc4c3)cc2)cs1 (stereo not shown) [Example 113]
33	Nc1nc(-c2ccc(NC(=O)CN(C(=O)C3CCC(F)(F)CC3)c3ccc4scnc4c3)cc2)cs1 [Example 116]
59	Nc1nc(-c2ccc(NC(=O)CN(C(=O)c3ccncn3)c3ccc4scnc4c3)cc2)cs1 [Example 118]
26	Nc1nc(-c2ccc(NC(=O)CN(C(=O)C3CCSCC3)c3ccc4scnc4c3)cc2)cs1 [Example 111]
28	Nc1nc(-c2ccc(NC(=O)CN(C(=O)C3CC=C(F)CC3)c3ccc4scnc4c3)cc2)cs1 (stereo not shown) [Example 115]
70	Nc1nc(-c2ccc(NC(=O)CN(C(=O)C3CCCCC3)c3ccc4ncsc4c3)cc2)cs1 [Example 114]
49	Nc1nc(-c2ccc(NC(=O)CN(C(=O)C3CCOCC3)c3ccc4scnc4c3)cc2)cs1 [Example 110]
4300	Nc1nc2c(ncn2COCCO)c(=O)[nH]1 [ACV, Acyclovir, reference compound]
25	Nc1nc(-c2ccc(NC(=O)CN(C(=O)c3ccncc3)c3ccc4scnc4c3)cc2)cs1 [Example 108]

— US6949543B2, “Amide derivative” (Yamanouchi Pharmaceutical Co., Ltd., priority 2000, dated 2005)
